{"source": "paper PMC6930570", "about": "“2-Arylidene-1-indandiones as Pleiotropic Agents with Antioxidant and Inhibitory Enzymes Activities” (Molecules, 2019)", "assay": "Superoxide anion radical scavenging activity (PMS/NADPH/NBT)", "assay_type": "biochemical", "conditions": "100 μM (stated for compound 3)", "method": "The compounds have been tested to scavenge superoxide anion radicals. However, no results were recorded under the experimental conditions.\nThe superoxide anion producing system was set up by mixing PMS, NADPH, and air oxygen. The production of superoxide anion was estimated by the nitrobluetetrazole NBT method. The reaction mixture containing compounds, 3 μM PMS, 78 μM NADPH, and 25 μM NBT in […] phosphate buffer pH 7.4 was incubated for 2 min at room temperature and the absorption was measured at 560 nm against a blank containing PMS. The tested compounds were pre-incubated for 2 min before adding NADPH. Caffeic acid was used as an appropriate standard (76%)."}
{"smiles": "O=C(O)/C=C/c1ccc(O)c(O)c1", "note": "[Caffeic acid, reference compound]", "values": [{"measurement": "superoxide anion scavenging activity", "value": 76, "unit": "%"}]}
